Experimental data: patent US20050058636A1, “Medicament against thrombotic diseases” (priority 2002, published 2005)

Assays:
[1] = biological target: T1, binding of PAI-1 to vitronectin in PAI-1-depleted extracellular matrix of endothelial cells (Homo sapiens, UniProt P04004); test: Binding of PAI-1 to endothelial cell matrix; details: 2 μg/ml PAI-1; competitors each 500 nM; 10 μM ZnCl2 (FIG. 1)
T1 construct: The extracellular matrix of human umbilical vein endothelial cells was prepared according to standard procedures; endogenous in cells; host or cells: extracellular matrix of human umbilical vein endothelial cells, glycine-treated
T1 sequence (P04004 20-478): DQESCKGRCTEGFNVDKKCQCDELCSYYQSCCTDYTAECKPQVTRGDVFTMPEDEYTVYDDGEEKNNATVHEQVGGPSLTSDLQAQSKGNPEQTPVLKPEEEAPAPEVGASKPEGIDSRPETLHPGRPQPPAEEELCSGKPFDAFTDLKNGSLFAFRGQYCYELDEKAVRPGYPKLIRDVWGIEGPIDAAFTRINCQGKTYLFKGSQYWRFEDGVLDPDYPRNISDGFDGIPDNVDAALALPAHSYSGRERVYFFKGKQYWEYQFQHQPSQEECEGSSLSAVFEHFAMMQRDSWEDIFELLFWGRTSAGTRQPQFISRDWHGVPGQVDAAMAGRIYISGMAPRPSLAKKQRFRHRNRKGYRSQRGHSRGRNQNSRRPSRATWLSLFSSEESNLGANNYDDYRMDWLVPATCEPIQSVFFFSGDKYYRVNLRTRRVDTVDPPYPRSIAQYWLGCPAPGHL
Description: The extracellular matrix of human umbilical vein endothelial cells was prepared according to standard procedures. PAI-1-depleted extracellular matrix was obtained by subsequent incubation with glycine (0.1 M, pH 2.3) for 2 h at 25° C. Wells were washed and blocked with phosphate buffered saline containing 3% (wt/vol) bovine serum albumin before proceeding with binding assays. Binding of PAI-1 (2 μg/ml) to the extracellular matrix was performed in a final volume of 50 μl Tris-buffered saline containing 0.1% Tween-20, 0.3% (wt/vol) bovine serum albumin for 2 h at 22° C. in the absence or presence of […] and different kininogen forms. Following the incubation period and a washing step, bound PAI-1 was quantitated by anti-human PAI-1 monoclonal antibody 12A4, followed by addition of 1:1000 diluted peroxidase-conjugated goat anti-mouse immunoglobulins. The conversion of the substrate 2,2,-azino-di(3-ethyl) benz-thiazoline sulphate was monitored at 405 nm in a Thermomax microtiter plate reader. […]
FIG. 1 The binding of 2 μg/ml PAI-1 to PAI-1-depleted (2 h glycine preincubation) extracellular matrix of cultured endothelial cells was tested in the absence (−)or presence of HK, HKa, GST-domain 5 (D5), the peptides HK483 and HK486 (each 500 nM) in a buffer containing 10 μM ZnCl2. Specific binding of PAI-1 is presented as absorbance at 405 nm.

PAI-1 = test: Urokinase-mediated clot lysis in the presence of PAI-1; type: biochemical; details: not shown
[2] = biological target: T2, platelet αIIbβ3-integrin with vitronectin (Homo sapiens, UniProt P04004); test: Binding of vitronectin to αIIbβ3-integrin; details: vitronectin 2 μg/ml, immobilized αIIbβ3-integrin 5 μg/ml, 10 μM ZnCl2 (FIG. 3)
T2 sequence (P04004 20-478): T1 sequence (P04004 20-478)
Description: Microtiter plates were coated with 5 μg/ml αIIbβ3-integrin in Tris-buffered saline, pH 7.4, containing 1 mM CaCl2, 1 mM MgCl2 overnight at 4° C. and then blocked with 3% (w/v) bovine serum albumin. Binding of multimeric vitronectin (2 μg/ml) was performed in a final volume of 50 μl Tris-buffered saline containing 0.1% Tween-20, 0.3% (w/v) bovine serum albumin, 1 mM CaCl2 and 1 mM MgCl2 for 2 h at 22° C. in the absence or presence of 10 μM ZnCl2 and different kininogen forms. After the incubation period, monoclonal anti-vitronectin antibody VN7 at a concentration of 125 ng/ml was added, followed by addition of 1:1000 diluted peroxidase-conjugated goat anti-mouse immunoglobulins, respectively. Binding was quantitated as described above.
FIG. 3 The binding of vitronectin (2 μg/ml) to immobilized αIIbβ3-integrin (5 μg/ml) in the absence or presence of increasing concentrations of PAI-1 (filled squares), HKa (filled circles) or GST-domain 5 (open circles) in a buffer containing 10 μM ZnCl2 was carried out. Specific binding is presented as absorbance at 405 nm.

platelets = test: Platelet adhesion onto vitronectin-coated plates; type: cell-based; details: competitors each 250 nM (FIG. 4)
Description: Multiwell plates were coated with 5 μg/ml multimeric vitronectin (dissolved in bicarbonate buffer, pH 9.6) and blocked with 3% (wt/vol) bovine serum albumin for 16 h at 4° C. Platelets stained with calcein acetoxymethyl ester (calcein-AM, 2.5 μM) (15 min at 37° C. in the dark) at a density of 5×10^6 cells suspended in 50 μl HEPES-Tyrode buffer containing 4 mM MgCl2 were added together with the respective competitors and incubated for 30 min at 37° C. After three washes with phosphate buffered saline, bound platelets were lysed with 100 μl of lysis buffer (150 mM NaCl, 10 mM Tris-CH1, pH 7.5, 5 mM EDTA, 1% (wt/vol) NP-40, 1 mM phenyl-methylsulfonyl fluoride, 20 μg/ml soybean trypsin inhibitor) and quantified in a fluorescent plate reader (excitation filter 492 nm, emission filter 535 nm).
FIG. 4. The adhesion of platelets to vitronectin in the absence (−) or presence of HK, HKa, GST-domain 5(D5), or the peptides HK483 and HK486 (each 250 nM) was carried out. Cell adhesion is presented as % of control.

platelet-rich plasma = test: Aggregation of platelet-rich plasma; type: cell-based; details: Adenosin-diphosphate (5 μM)-induced; competitors each 1000 nM (FIG. 5)
Description: Platelet-rich plasma from fresh whole blood in sodium citrate was prepared by centrifugation of anticoagulated whole blood at 150 g for 20 min. After incubation of 0.45 ml of platelet rich plasma with different kininogen forms as indicated in the figure legends, and addition of 5 μl of […] at a final concentration of 5 μM, platelet aggregation was induced. Aggregation was quantitated by following the change in light transmission in a standardized aggregometer.
FIG. 5 Adenosin-diphosphate (5 μM)-induced aggregation of platelet-rich plasma was performed in the absence (−) or presence of GST-domain 5 (D5), or the peptides HK483 and HK486 (each 1000 nM). Platelet aggregation is presented as % of control.

Gly-486-Lys-502 (GKHKNKGKKNGKHNGWK; UniProt P01042 504-520, looked up, fragment) [HK486, peptide derived from the carboxy-terminus of the domain 5 of HK]
binding of PAI-1 to vitronectin in PAI-1-depleted (glycine-treated) extracellular matrix of endothelial cells [1]: inhibited | urokinase-mediated clot lysis, which is inhibited in the presence of PAI-1 (PAI-1): enhance | interaction of platelet αIIbβ3-integrin with vitronectin [2]: block | αIIbβ3-integrin-mediated platelet adhesion to vitronectin (platelets): block | aggregation of platelet-rich plasma (platelet-rich plasma): inhibit
